According to PubChem BioAssay (NCI):
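Five compound concentrations were applied to cells in 96-well plates for 48 hours; endpoints were derived by simple linear interpolation of the resulting dose-response curve. GI50 is the concentration that inhibits growth by half. TGI marks complete inhibition of growth.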

Legend:
Test in all cases: NCI anticancer screen, dose series, 48 h
[1] = system: CAKI-1 renal
[2] = system: EKVX NSCLC
[3] = system: HCT-116 colon
[4] = system: HT29 colon
[5] = system: SF-539 CNS
[6] = system: SK-OV-3 ovarian
[7] = system: TK-10 renal
[8] = system: UACC-257 melanoma
[9] = system: HL-60(TB) leukemia

| Structure (SMILES) | TGI [1] [µM] | TGI [2] [µM] | TGI [3] [µM] | TGI [4] [µM] | TGI [5] [µM] | TGI [6] [µM] | TGI [7] [µM] | TGI [8] [µM] | TGI [9] [µM] | GI50 [1] [µM] | GI50 [2] [µM] | GI50 [3] [µM] | GI50 [9] [µM] | GI50 [5] [µM] | GI50 [7] [µM] |
| --- | --- | --- | --- | --- | --- | --- | --- | --- | --- | --- | --- | --- | --- | --- | --- |
| CC(=O)OC1C(COC(N)=O)OC(n2c(-c3ccc(C)cc3)cc(-c3ccccc3)c(C#N)c2=O)C(OC(C)=O)C1OC(C)=O (stereo unspecified) | > 100 | > 100 | > 100 | > 100 | > 100 | > 100 | > 100 | > 100 | – | – | – | – | – | – | – |
| CN(CC(=O)O)S(=O)(=O)c1ccc(Cl)cc1 | > 100 | > 100 | – | > 100 | > 100 | > 100 | > 100 | > 100 | > 100 | – | – | – | – | – | – |
| Cc1ccc(S(=O)OC2c3ccccc3Cc3ccccc32)cc1 (stereo unspecified) | 56.3 | 34.5 | 35.8 | > 100 | 40.2 | 41.9 | 64.3 | 34.9 | 44 | – | – | – | – | – | – |
| S=C1NC(c2ccccc2)=NC(Cc2ccccc2)(c2ccccc2)N1c1ccccc1 (stereo unspecified) | > 100 | > 100 | > 100 | > 100 | > 100 | – | > 100 | > 100 | > 100 | – | – | – | – | – | – |
| COc1cc(/C=C(\C)c2ccc3c(c2)OCO3)cc(OC)c1OC | – | 51.8 | > 100 | > 100 | 58.7 | 75.1 | > 100 | > 100 | > 100 | – | – | – | – | – | – |
| Cc1ccccc1C(C#N)/C(=N/NC(N)=S)C(=O)Nc1c(C)cccc1C (stereo unspecified) | – | > 100 | > 100 | > 100 | – | – | > 100 | > 100 | > 100 | – | – | – | – | – | – |
| Cn1cnc([N+](=O)[O-])c1Sc1nccn1-c1ccccc1 | > 100 | > 100 | > 100 | > 100 | > 100 | > 100 | > 100 | > 100 | – | – | – | – | – | – | – |
| COC1OC(CO)C(O)C(NC(=O)N(C)N=O)C1O (stereo unspecified) | > 100 | > 100 | > 100 | > 100 | > 100 | > 100 | > 100 | – | > 100 | – | – | – | – | – | – |
| CN1C(=O)CNS1(=O)=O | – | – | > 100 | > 100 | > 100 | > 100 | > 100 | > 100 | > 100 | – | – | – | – | – | – |
| CCOc1ccc(N=C2NC(=O)C(CC(=O)Nc3ccc(Cl)cc3Cl)S2)cc1 (stereo unspecified) | > 100 | > 100 | – | > 100 | > 100 | > 100 | > 100 | > 100 | – | – | – | – | – | – | – |
| CC[C@H]1[C@@H](C)C=C[C@@H](C)N1S(=O)(=O)c1ccc(C)cc1 | > 100 | > 100 | > 100 | > 100 | > 100 | > 100 | – | > 100 | 52 | – | – | – | – | – | – |
| C=CCC1=C2CCCCC2CCC1=O (stereo unspecified) | > 100 | > 100 | > 100 | – | > 100 | > 100 | > 100 | > 100 | > 100 | – | – | – | – | – | – |
| Cc1cc2c(=O)cc(-c3ccc(Cl)cc3Cl)oc2c(C(=O)O)c1C | > 100 | > 100 | > 100 | > 100 | > 100 | > 100 | > 100 | > 100 | – | – | – | – | – | – | – |
| NC(=S)N/N=C/c1cn(CCCl)c2ccccc12 | > 100 | > 100 | > 100 | > 100 | – | > 100 | > 100 | > 100 | 53.8 | – | – | – | – | – | – |
| COC(=O)c1oc([N+](=O)[O-])c(-c2ccccc2)c1-c1ccccc1 | > 100 | > 100 | > 100 | > 100 | > 100 | > 100 | > 100 | > 100 | – | – | – | – | – | – | – |
| CCCCN(CCCC)C(=O)C(=O)C(C(=O)C(=O)OC)c1nc2ccccc2o1 (stereo unspecified) | > 100 | – | > 100 | > 100 | > 100 | > 100 | > 100 | > 100 | > 100 | – | – | – | – | – | – |
| Cc1cc2c(=O)cc(-c3ccc(C(=O)O)cc3)oc2c(C(N)=O)c1C | – | > 100 | > 100 | > 100 | > 100 | > 100 | > 100 | > 100 | – | – | – | – | – | – | – |
| CCOC(=O)c1sc(Nc2cc(Cl)ccc2Cl)nc1C | – | > 100 | > 100 | > 100 | > 100 | – | > 100 | > 100 | > 100 | – | – | – | – | – | – |
| CC(=O)Nc1ccc(S(=O)(=O)N/N=C/c2cc(I)cc([N+](=O)[O-])c2O)cc1 | > 100 | > 100 | – | > 100 | – | > 100 | > 100 | > 100 | > 100 | – | – | – | – | – | – |
| CNC(=O)N(CCCC(NC(C)=O)C(=O)NCc1ccccc1)Cc1ccccc1 (stereo unspecified) | > 100 | > 100 | > 100 | > 100 | > 100 | > 100 | > 100 | > 100 | – | – | – | – | – | – | – |
| O=C([CH-]C(=O)c1ccccc1)c1ccccc1.O=C([CH-]C(=O)c1ccccc1)c1ccccc1.[CH2-]CCC.[CH2-]CCC.[Sn+4] | 0.462 | 2.7 | 2.28 | – | 1.94 | – | 1.11 | – | 0.606 | 0.067 | 1.17 | 0.917 | 0.169 | 0.587 | 0.38 |
